Patent publication US20240059671A1, “TYROSINE KINASE 2 (TYK2) DEGRADATION COMPOUNDS AND METHODS OF USE” (CULLGEN (SHANGHAI), INC., priority 2020, published 2024)

Biological target: TYK2 (Homo sapiens, UniProt P29597)
Experiment: TYK2 protein degradation in MOLT-4 cells by immunoblotting
Assay type: cell-based
Design: endogenous in cells; host or cells: MOLT-4
Settings: MOLT-4 cells, 24 hours
Outline: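 MOLT-4 cells were exposed to compounds at 0.5 and 5 μM for 24 h, then lysed in RIPA buffer with protease and phosphatase inhibitors. TYK2 was detected by SDS-PAGE immunoblot with chemiluminescence, and band densitometry gave percent degradation.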

Sequence of TYK2 (P29597 whole entry): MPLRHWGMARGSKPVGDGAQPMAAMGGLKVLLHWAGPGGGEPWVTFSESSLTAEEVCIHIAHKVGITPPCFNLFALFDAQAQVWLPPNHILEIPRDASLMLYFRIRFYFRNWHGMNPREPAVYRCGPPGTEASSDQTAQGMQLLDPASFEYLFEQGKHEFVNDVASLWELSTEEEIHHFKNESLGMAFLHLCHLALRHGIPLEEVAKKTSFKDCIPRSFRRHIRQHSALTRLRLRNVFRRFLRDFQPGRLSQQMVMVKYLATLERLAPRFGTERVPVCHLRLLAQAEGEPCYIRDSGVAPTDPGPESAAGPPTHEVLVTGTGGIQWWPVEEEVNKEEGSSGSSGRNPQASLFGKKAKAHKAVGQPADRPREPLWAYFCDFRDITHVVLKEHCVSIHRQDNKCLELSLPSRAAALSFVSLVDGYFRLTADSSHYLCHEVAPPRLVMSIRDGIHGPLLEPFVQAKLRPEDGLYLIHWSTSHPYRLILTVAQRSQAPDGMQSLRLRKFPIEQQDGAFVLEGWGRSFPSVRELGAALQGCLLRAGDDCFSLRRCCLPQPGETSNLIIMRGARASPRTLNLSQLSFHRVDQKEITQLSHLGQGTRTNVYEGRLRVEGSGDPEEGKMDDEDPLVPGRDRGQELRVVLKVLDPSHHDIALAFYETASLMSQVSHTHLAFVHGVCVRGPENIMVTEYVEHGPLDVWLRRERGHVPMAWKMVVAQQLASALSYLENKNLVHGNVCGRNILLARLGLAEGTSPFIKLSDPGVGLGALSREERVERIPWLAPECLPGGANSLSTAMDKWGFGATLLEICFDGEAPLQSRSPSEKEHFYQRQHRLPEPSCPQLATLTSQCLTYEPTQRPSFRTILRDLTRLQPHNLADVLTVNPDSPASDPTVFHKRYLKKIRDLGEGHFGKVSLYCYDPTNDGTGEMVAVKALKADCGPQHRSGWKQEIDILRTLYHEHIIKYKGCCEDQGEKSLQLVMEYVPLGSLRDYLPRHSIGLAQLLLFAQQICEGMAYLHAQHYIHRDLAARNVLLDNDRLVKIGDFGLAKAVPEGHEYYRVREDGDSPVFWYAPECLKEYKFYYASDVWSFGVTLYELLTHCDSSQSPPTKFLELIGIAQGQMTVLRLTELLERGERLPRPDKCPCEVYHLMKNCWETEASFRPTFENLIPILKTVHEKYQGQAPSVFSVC

SMILES	TYK2 Degradation (0.5 μM)	TYK2 Degradation (5 μM)	TYK2 Degradation (MOLT-4, 0.5 μM)	TYK2 Degradation (MOLT-4, 5 μM)
CNC(=O)c1nnc(NC(=O)CNC(=O)CCOCCOCCOCCOCCOCCNc2cccc3c2C(=O)N(C2CCC(=O)NC2=O)C3=O)cc1Nc1cccc(-c2ncn(C)n2)c1OC (centres unmarked) [CPD-053, 6-(1-((2-(2,6-Dioxopiperidin-3-yl)-1,3-dioxoisoindolin-4-yl)amino)-18-oxo-3,6,9,12,15-pentaoxa-19-azahenicosan-21-amido)-4-((2-methoxy-3-(1-methyl-1H-1,2,4-triazol-3-yl)phenyl)amino)-N-methylpyridazine-3-carboxamide]	≤20%	≤20%	–	–
CNC(=O)c1nnc(Nc2ccc(N3CCN(C(=O)CCCC(=O)N[C@H](C(=O)N4C[C@H](O)C[C@H]4C(=O)NCc4ccc(-c5scnc5C)cc4)C(C)(C)C)CC3)cn2)cc1Nc1cccc(-c2ncn(C)n2)c1OC [CPD-097, 6-((5-(4-(5-(((S)-1-((2S,4R)-4-Hydroxy-2-((4-(4-methylthiazol-5-yl)benzyl)carbamoyl)pyrrolidin-1-yl)-3,3-dimethyl-1-oxobutan-2-yl)amino)-5-oxopentanoyl)piperazin-1-yl)pyridin-2-yl)amino)-4-((2-methoxy-3-(1-methyl-1H-1,2,4-triazol-3-yl)phenyl)amino)-N-methylpyridazine-3-carboxamide]	–	–	B (B: <60% TYK2 degradation, and >20% TYK2 degradation)	C (C: ≤20% TYK2 degradation)
CNC(=O)c1nnc(NC(=O)CNC(=O)CCCNc2ccc3c(c2)C(=O)N(C2CCC(=O)NC2=O)C3=O)cc1Nc1cccc(-c2ncn(C)n2)c1OC (centres unmarked) [CPD-056, 6-(2-(4-((2-(2,6-Dioxopiperidin-3-yl)-1,3-dioxoisoindolin-5-yl)amino)butanamido)acetamido)-4-((2-methoxy-3-(1-methyl-1H-1,2,4-triazol-3-yl)phenyl)amino)-N-methylpyridazine-3-carboxamide]	≤20%	≤20%	–	–
CNC(=O)c1nnc(NC(=O)C2CC2)cc1Nc1cccc(-c2ncn(CCNC(=O)CCCCCCCCCC(=O)N[C@H](C(=O)N3C[C@H](O)C[C@H]3C(=O)NCc3ccc(-c4scnc4C)cc3)C(C)(C)C)n2)c1OC [CPD-082, N^1-(2-(3-(3-((6-(Cyclopropanecarboxamido)-3-(methylcarbamoyl)pyridazin-4-yl)amino)-2-methoxyphenyl)-1H-1,2,4-triazol-1-yl)ethyl)-N^11-((S)-1-((2S,4R)-4-hydroxy-2-((4-(4-methylthiazol-5-yl)benzyl)carbamoyl)pyrrolidin-1-yl)-3,3-dimethyl-1-oxobutan-2-yl)undecanediamide]	–	–	C (C: ≤20% TYK2 degradation)	C (C: ≤20% TYK2 degradation)
CNC(=O)c1nnc(NC(=O)C2CC2)cc1Nc1cccc(-c2ncn(CCNC(=O)CCNc3cccc4c3C(=O)N(C3CCC(=O)NC3=O)C4=O)n2)c1OC (centres unmarked) [CPD-002, 6-(Cyclopropanecarboxamido)-4-((3-(1-(2-(3-((2-(2,6-dioxopiperidin-3-yl)-1,3-dioxoisoindolin-4-yl)amino)propanamido)ethyl)-1H-1,2,4-triazol-3-yl)-2-methoxyphenyl)amino)-N-methylpyridazine-3-carboxamide]	≤20%	–	–	–
CNC(=O)c1nnc(NC(=O)CNC(=O)CCCC(=O)N[C@H](C(=O)N2C[C@H](O)C[C@H]2C(=O)NCc2ccc(-c3scnc3C)cc2)C(C)(C)C)cc1Nc1cccc(-c2ncn(C)n2)c1OC [CPD-035, N^1—((S)-1-((2S,4R)-4-Hydroxy-2-((4-(4-methylthiazol-5-yl)benzyl)carbamoyl)pyrrolidin-1-yl)-3,3-dimethyl-1-oxobutan-2-yl)-N^5-(2-((5-((2-methoxy-3-(1-methyl-1H-1,2,4-triazol-3-yl)phenyl)amino)-6-(methylcarbamoyl)pyridazin-3-yl)amino)-2-oxoethyl)glutaramide]	≤20%	≤20%	–	–
CNC(=O)c1nnc(NC(=O)CNC(=O)CCCCCCCCCCOc2cc(-c3scnc3C)ccc2CNC(=O)[C@@H]2C[C@@H](O)CN2C(=O)[C@@H](NC(=O)C2(F)CC2)C(C)(C)C)cc1Nc1cccc(-c2ncn(C)n2)c1OC [CPD-110, 6-(2-(11-(2-(((2S,4R)-1-((S)-2-(1-fluorocyclopropane-1-carboxamido)-3,3-dimethylbutanoyl)-4-hydroxypyrrolidine-2-carboxamido)methyl)-5-(4-methylthiazol-5-yl)phenoxy)undecanamido)acetamido)-4-((2-methoxy-3-(1-methyl-1H-1,2,4-triazol-3-yl)phenyl)amino)-N-methylpyridazine-3-carboxamide]	–	–	A (A: ≥60% TYK2 degradation)	A (A: ≥60% TYK2 degradation)
CNC(=O)c1nnc(NC(=O)CNC(=O)CCCCOc2cc(-c3scnc3C)ccc2CNC(=O)[C@@H]2C[C@@H](O)CN2C(=O)[C@@H](NC(=O)C2(F)CC2)C(C)(C)C)cc1Nc1cccc(-c2ncn(C)n2)c1OC [CPD-104, 6-(2-(5-(2-(((2S,4R)-1-((S)-2-(1-Fluorocyclopropane-1-carboxamido)-3,3-dimethylbutanoyl)-4-hydroxypyrrolidine-2-carboxamido)methyl)-5-(4-methylthiazol-5-yl)phenoxy)pentanamido)acetamido)-4-((2-methoxy-3-(1-methyl-1H-1,2,4-triazol-3-yl)phenyl)amino)-N-methylpyridazine-3-carboxamide]	–	–	C (C: ≤20% TYK2 degradation)	C (C: ≤20% TYK2 degradation)
CNC(=O)c1nnc(NC(=O)CNC(=O)COCCOCCOCC(=O)N[C@H](C(=O)N2C[C@H](O)C[C@H]2C(=O)NCc2ccc(-c3scnc3C)cc2)C(C)(C)C)cc1Nc1cccc(-c2ncn(C)n2)c1OC [CPD-029, 6-((S)-16-((2S,4R)-4-Hydroxy-2-((4-(4-methylthiazol-5-yl)benzyl)carbamoyl)pyrrolidine-1-carbonyl)-17,17-dimethyl-4,14-dioxo-6,9,12-trioxa-3,15-diazaoctadecanamido)-4-((2-methoxy-3-(1-methyl-1H-1,2,4-triazol-3-yl)phenyl)amino)-N-methylpyridazine-3-carboxamide]	≤20%	≤20%	–	–
CNC(=O)c1nnc(NC(=O)CNC(=O)CCOCCOCCOCCOCCC(=O)N[C@H](C(=O)N2C[C@H](O)C[C@H]2C(=O)NCc2ccc(-c3scnc3C)cc2)C(C)(C)C)cc1Nc1cccc(-c2ncn(C)n2)c1OC [CPD-031, N^1—((S)-1-((2S,4R)-4-Hydroxy-2-((4-(4-methylthiazol-5-yl)benzyl)carbamoyl)pyrrolidin-1-yl)-3,3-dimethyl-1-oxobutan-2-yl)-N^16-(2-((5-((2-methoxy-3-(1-methyl-1H-1,2,4-triazol-3-yl)phenyl)amino)-6-(methylcarbamoyl)pyridazin-3-yl)amino)-2-oxoethyl)-4,7,10,13-tetraoxahexadecanediamide]	≤20%	≤20%	–	–
CNC(=O)c1nnc(NC(=O)CNC(=O)CCCCCNc2ccc3c(c2)C(=O)N(C2CCC(=O)NC2=O)C3=O)cc1Nc1cccc(-c2ncn(C)n2)c1OC (centres unmarked) [CPD-058, 6-(2-(6-((2-(2,6-Dioxopiperidin-3-yl)-1,3-dioxoisoindolin-5-yl)amino)hexanamido)acetamido)-4-((2-methoxy-3-(1-methyl-1H-1,2,4-triazol-3-yl)phenyl)amino)-N-methylpyridazine-3-carboxamide]	≤20%	≤20%	–	–
CNC(=O)c1nnc(NC(=O)CNC(=O)CCOCCNc2cccc3c2C(=O)N(C2CCC(=O)NC2=O)C3=O)cc1Nc1cccc(-c2ncn(C)n2)c1OC (centres unmarked) [CPD-049, 6-(2-(3-(2-((2-(2,6-Dioxopiperidin-3-yl)-1,3-dioxoisoindolin-4-yl)amino)ethoxy)propanamido)acetamido)-4-((2-methoxy-3-(1-methyl-1H-1,2,4-triazol-3-yl)phenyl)amino)-N-methylpyridazine-3-carboxamide]	≤20%	≤20%	–	–
CNC(=O)c1nnc(NC(=O)C2CC2)cc1Nc1cccc(-c2ncn(CCNC(=O)CCCCCCCCC(=O)N[C@H](C(=O)N3C[C@H](O)C[C@H]3C(=O)NCc3ccc(-c4scnc4C)cc3)C(C)(C)C)n2)c1OC [CPD-081, N^1-(2-(3-(3-((6-(Cyclopropanecarboxamido)-3-(methylcarbamoyl)pyridazin-4-yl)amino)-2-methoxyphenyl)-1H-1,2,4-triazol-1-yl)ethyl)-N^10-((S)-1-((2S,4R)-4-hydroxy-2-((4-(4-methylthiazol-5-yl)benzyl)carbamoyl)pyrrolidin-1-yl)-3,3-dimethyl-1-oxobutan-2-yl)decanediamide]	–	–	C (C: ≤20% TYK2 degradation)	C (C: ≤20% TYK2 degradation)
CNC(=O)c1nnc(NC(=O)C2CC2)cc1Nc1cccc(-c2ncn(CCNC(=O)CCCCCCC(=O)N[C@H](C(=O)N3C[C@H](O)C[C@H]3C(=O)NCc3ccc(-c4scnc4C)cc3)C(C)(C)C)n2)c1OC [CPD-079, N^1-(2-(3-(3-((6-(Cyclopropanecarboxamido)-3-(methylcarbamoyl)pyridazin-4-yl)amino)-2-methoxyphenyl)-1H-1,2,4-triazol-1-yl)ethyl)-N^8-((S)-1-((2S,4R)-4-hydroxy-2-((4-(4-methylthiazol-5-yl)benzyl)carbamoyl)pyrrolidin-1-yl)-3,3-dimethyl-1-oxobutan-2-yl)octanediamide]	–	–	C (C: ≤20% TYK2 degradation)	C (C: ≤20% TYK2 degradation)
CNC(=O)c1nnc(NC(=O)CNC(=O)CCOCCOCCC(=O)N[C@H](C(=O)N2C[C@H](O)C[C@H]2C(=O)NCc2ccc(-c3scnc3C)cc2)C(C)(C)C)cc1Nc1cccc(-c2ncn(C)n2)c1OC [CPD-028, 6-((S)-15-((2S,4R)-4-Hydroxy-2-((4-(4-methylthiazol-5-yl)benzyl)carbamoyl)pyrrolidine-1-carbonyl)-16,16-dimethyl-4,13-dioxo-7,10-dioxa-3,14-diazaheptadecanamido)-4-((2-methoxy-3-(1-methyl-1H-1,2,4-triazol-3-yl)phenyl)amino)-N-methylpyridazine-3-carboxamide]	≤20%	≤20%	–	–
